{
  "source": "paper PMC11301625",
  "about": "“Azobenzene-Based Photoswitchable Substrates for Advanced Mechanistic Studies of Model Haloalkane Dehalogenase Enzyme Family” (ACS Catalysis, 2024)",
  "key": {"LinB [1]": {"molecular_target": "T1, LinB (Sphingobium indicum, UniProt D4Z2G1)", "T1 construct": "His-tagged, expressed in E. coli BL21(DE3), Ni-NTA purified; PDB 1MJ5 given for the docking model of the same protein", "T1 sequence (D4Z2G1 2-296)": "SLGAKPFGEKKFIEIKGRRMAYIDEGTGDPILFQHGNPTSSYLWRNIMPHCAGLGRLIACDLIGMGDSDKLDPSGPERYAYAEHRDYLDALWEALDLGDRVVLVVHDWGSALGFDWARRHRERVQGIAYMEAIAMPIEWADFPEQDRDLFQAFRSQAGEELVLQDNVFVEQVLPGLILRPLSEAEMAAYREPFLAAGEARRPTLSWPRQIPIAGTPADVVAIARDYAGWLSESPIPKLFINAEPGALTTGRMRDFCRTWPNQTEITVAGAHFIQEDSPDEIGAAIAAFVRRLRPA", "experiment": "stopped-flow tryptophan fluorescence after preincubation", "format": "biochemical", "conditions": "100 mM glycine pH 8.6, 37 °C; slow irreversible inhibition, substrate E-3c"}, "DmmA [2]": {"molecular_target": "T2, DmmA (Lyngbya majuscula, UniProt Q6DND9)", "T2 construct": "gene curN; His-tagged, expressed in E. coli BL21(DE3), Ni-NTA purified; PDB 3U1T for the docking model of the same protein", "T2 sequence (Q6DND9 25-341)": "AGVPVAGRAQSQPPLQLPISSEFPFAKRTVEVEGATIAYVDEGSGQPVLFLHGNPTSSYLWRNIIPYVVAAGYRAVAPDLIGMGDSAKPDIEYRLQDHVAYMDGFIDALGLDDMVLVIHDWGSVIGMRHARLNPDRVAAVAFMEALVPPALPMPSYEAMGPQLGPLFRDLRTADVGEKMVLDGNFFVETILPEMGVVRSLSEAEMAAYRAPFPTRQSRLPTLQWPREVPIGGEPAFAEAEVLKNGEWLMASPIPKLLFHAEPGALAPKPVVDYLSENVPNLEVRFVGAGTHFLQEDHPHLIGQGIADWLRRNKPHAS", "experiment": "ITC progress curves", "format": "biochemical", "excerpt": "ITC progress curves on DmmA | Z-isomer of substrate 3a binds to the enzyme’s active site and functions as a competitive inhibitor"}, "DmmA [3]": {"molecular_target": "T2, DmmA", "experiment": "global fit of stopped-flow fluorescence/absorbance and ITC", "format": "biochemical", "conditions": "100 mM glycine pH 8.6, 37 °C; enzyme-product complex after isomerization (EP2); read-out: K5", "excerpt": "global fit of stopped-flow fluorescence/absorbance and ITC on DmmA"}, "LinB [4]": {"molecular_target": "T1, LinB", "experiment": "global fit of stopped-flow fluorescence/absorbance and ITC", "format": "biochemical", "conditions": "100 mM glycine pH 8.6, 37 °C", "excerpt": "global fit of stopped-flow fluorescence/absorbance and ITC on LinB"}, "ITC progress curves": {"substrate": "C[N+](C)(C)Cc1ccc(/N=N/c2cccc(CCl)c2)cc1", "experiment": "ITC progress curves", "format": "biochemical, Lyngbya majuscula", "conditions": "100 mM glycine pH 8.6, 37 °C"}},
  "note": "Like-named read-outs stand apart in the source and are kept apart here.",
  "data": [
    {"molecule": "C[N+](C)(C)Cc1ccc(/N=N\\c2cccc(CCl)c2)cc1", "note": "(mixture of isomers) [3c, Z-3c]", "values": [
      {"measurement": "stopped-flow tryptophan fluorescence after preincubation", "setting": "LinB [1]", "result": "the inhibition effect of Z-3c was significantly more prominent in the case of LinB"}
    ]},
    {"molecule": "COCCOCCOc1ccc(/N=N\\c2cccc(CCl)c2)cc1", "note": "[3a, Z-3a]", "values": [
      {"measurement": "Ki", "setting": "DmmA [2]", "result": "0.035 ± 0.001", "unit": "µM"}
    ]},
    {"molecule": "C[N+](C)(C)Cc1ccc(/N=N/c2cccc(CO)c2)cc1", "note": "[3c, E-3c-OH]", "values": [
      {"measurement": "Kd", "setting": "DmmA [3]", "result": "3.55 ± 1.01", "unit": "µM"},
      {"measurement": "Kd", "setting": "LinB [4]; enzyme-product complex (EP), read-out: K4", "result": "11.6 ± 0.1", "unit": "µM"}
    ]},
    {"molecule": "C[N+](C)(C)Cc1ccc(/N=N/c2cccc(CCl)c2)cc1", "note": "[3c, E-3c]", "values": [
      {"measurement": "Kd", "setting": "LinB [4]; equilibrium dissociation constant of enzyme-substrate complex, read-out: K1", "result": "7.39 ± 0.03", "unit": "µM"}
    ]},
    {"molecule": "DmmA (Lyngbya majuscula) (protein, His-tagged, expressed in E. coli BL21(DE3), Ni-NTA purified; PDB 3U1T for the docking model of the same protein) AGVPVAGRAQSQPPLQLPISSEFPFAKRTVEVEGATIAYVDEGSGQPVLFLHGNPTSSYLWRNIIPYVVAAGYRAVAPDLIGMGDSAKPDIEYRLQDHVAYMDGFIDALGLDDMVLVIHDWGSVIGMRHARLNPDRVAAVAFMEALVPPALPMPSYEAMGPQLGPLFRDLRTADVGEKMVLDGNFFVETILPEMGVVRSLSEAEMAAYRAPFPTRQSRLPTLQWPREVPIGGEPAFAEAEVLKNGEWLMASPIPKLLFHAEPGALAPKPVVDYLSENVPNLEVRFVGAGTHFLQEDHPHLIGQGIADWLRRNKPHAS", "values": [
      {"measurement": "Km", "setting": "ITC progress curves", "result": "850 ± 40", "unit": "µM"},
      {"measurement": "kcat", "setting": "ITC progress curves", "result": "0.50 ± 0.03", "unit": "s⁻¹"}
    ]}
  ]
}
